Data taken from a melting point compilation (Tetko et al.; mined from patent text by program, amines drawn as free bases though some values may be those of a salt).

melting point [°C]	Structure (SMILES)
214 to 217	CC(c1oc2ccccc2c(=O)c1-c1cccc(F)c1)n1nc(-c2ccc(N(C)C)cc2)c2c(N)ncnc21 (configuration not stated)
> 260	O=C(Nc1ccc(Cl)cc1)n1cc(F)c(=O)[nH]c1=O
220 to 224	CCCCCCCCCCCCCCCCOC[C@@H]1OCCC[C@H]1OP(=O)([O-])OCC[N+](C)(C)C (relative stereo)
192 to 193	O=Cc1cn(-c2ccc(Cl)cc2)nc1-c1ccc([N+](=O)[O-])o1
165	CCCc1cc2ccccn2c1C(=O)c1ccc(O)c(Cl)c1
125 to 128	COCc1cc([N+](=O)[O-])ccc1N1C(=O)c2ccc(Cl)cc2C1=O
220 to 222	Cc1cccc(Nn2c(-c3ccccc3)c(C(C)C)[nH]c2=S)c1
138 to 140	COc1cc(N)c(Cl)cc1C(=O)CCC1CCNCC1
> 260	COc1cc(OC)c(-c2cc3ccccc3s2)cc1/C=C/C(=O)c1ccc(Nc2c(N)c(=O)c2=O)cc1
124 to 126	CN(C)CC(C)(C)CNc1nccc(-c2c(-c3ccc(F)cc3Cl)nc3occn23)n1
130	COc1ccc(C(=O)Nc2ccc3ccc(SC)nc3n2)cc1
123 to 125	O=C(c1cccs1)c1cnn2c(-c3cccc(NC/C=C/c4ccccc4)c3)ccnc12
260 to 263	CCOP(=O)(Cc1nnc2c(=O)[nH]c3cc(C(F)(F)F)c(N)cc3n12)OCC
78	Nc1ccc(O)c(N)c1
84 to 86	Brc1ccc2oc(Cc3cccs3)cc2c1
183 to 185	CC(C)CC1(C(CCN2C(=O)c3c(F)c(F)c(F)c(F)c3C2=O)C(=O)NO)CCN(Cc2ccccc2)C1=O (configuration not stated)
243 to 245	CCn1ncc2c3noc(-c4ccc(C(F)(F)F)cc4)c3cnc21
135 to 139	COc1ccc(C2=NN(Cc3ccc(C(=O)O)cc3)C(=O)[C@H]3CCCC[C@@H]23)cc1OC (relative stereo)
60	COC(=O)N=C(N(C)C)N(C)C(=O)NC1CCCCC1
213	O=C(N[C@H]1CC[C@H](CCN2CCC(c3cccc4c3CCO4)CC2)CC1)c1ccc(F)cc1
238	CN1CCN(c2ccc(-c3[nH]nc4c3C(=O)c3c(NC(=O)NNC(=O)c5cccnc5)cccc3-4)cc2)CC1
173 to 175	CC(=O)Oc1ccc2c(c1)CCC1C2CCC2(C)C1CC(O)C2N(C)C (configuration not stated)
156 to 158	OCc1c(OCc2ccccc2)ccc2c1CC[C@@H](NC1CCC1)[C@@H]2O (relative stereo)
143 to 145	CCOC(=O)c1ccc(NC(=O)c2ccncc2)cc1
> 270	O=c1[nH]c2scc(C3CCCCC3)c2[nH]c1=O

melting point [°C]	Structure (SMILES)
114 to 115	COc1ccc(COCCC(C(=O)O)c2ccccc2)cc1 (configuration not stated)
212 to 214	Clc1nc2cc(Cl)c(Cl)cc2[nH]1
133 to 135	CCOC(=O)NCC(=O)c1ccc(OCC(=O)NCCN2CCOCC2)cc1
156 to 157	Cc1nc(Cn2c(=O)sc3cc(F)c(N)cc32)no1
108 to 110	COc1ccc(C(C[N+](=O)[O-])SC(=S)N(C)C)cc1OC (configuration not stated)
300	COc1cc2c(cc1O)CC1CN(C)Cc3c(O)c(OC)cc-2c31 (configuration not stated)
166 to 167	Cc1nc(-c2ccc(C(F)(F)F)cc2)sc1CSc1ccc(OCC(=O)O)c2c1CCCC2
66 to 68	CCCCCCCCCCCCCCCCCCOc1cc(OCc2ccccc2)cc(N(CC(=O)OC)CC(=O)OC)c1
65 to 72	CCCCCCCCCCCCCCCc1cccc(OC)c1C(=O)O
172	CCCCCC(=O)NC[C@H](O)CC(=O)NN
250 to 251	O=C(Nc1ccc(C(=O)N2CCc3cn[nH]c3-c3ncccc32)cc1)c1ccccc1-c1ccccc1
62 to 64	CNS(=O)(=O)c1ccccc1C
163 to 164	COc1ccc(N2C(=O)C3=C(SCCS3)C2CC(=O)N2CCCCC2)cc1 (configuration not stated)
101 to 102	Oc1cc(OCC(O)COc2ccccc2)ccc1C(=S)c1ccc(-c2ccccc2)cc1 (configuration not stated)
203 to 204	O=C(O)Cc1nn(-c2nc3c(Cc4ccc5scnc5c4)cccc3s2)c(=O)c2ccccc12
318 to 320	N#Cc1ccc(-c2cccc(-c3nc4cc(C#N)ccc4[nH]3)c2O)cc1
153 to 155	CCC(Oc1ccc(F)cc1F)C(=O)OC1CC(O)C=C2C=CC(C)C(CCC3CC(O)CC(=O)O3)C21 (mixture of isomers)
65 to 66	CCOC(=O)c1cc2c(nc1C(=O)OCC)CCSC2
149 to 150	O=C(O)CCc1conc1-c1ccc(Cl)cc1
157	CN(C)C(=O)c1cccc(C(=O)Nc2cccc3cc(Br)cnc23)c1
132	COC(=O)C(=O)Nc1ccc(-c2ccccc2S(=O)(=O)NC(C)(C)C)cc1
188 to 190	CC(=Cc1ccc2cc[nH]c2c1)C(=O)O
138 to 140	CC(C)(C)N1CN(Cc2ccccc2)C(N)=C2C=NN=C21
104	N#Cc1ccc(C=CC(=O)C2CC2)cc1

Further lines, the compound ahead of its results:

Structure (SMILES)	melting point [°C]
Cc1sc2c(Br)c3ccccc3c(-c3cc(C(C)C)c(OS(=O)(=O)c4ccc(C(=O)O)c(O)c4)c(C(C)C)c3)c2c1C	> 225
CN(C)c1ccc([PH](=O)c2ccc(N(C)C)cc2)cc1	152
C[C@@H]1CN(c2ccc(N/C=C3\C(=O)NC(=O)c4ccc(-c5ccoc5)cc43)cc2)C[C@H](C)N1C	204 to 205
CS(=O)(=O)c1ccc(-c2coc3ccc(-c4nnc(N)o4)cc23)cc1Cl	263 to 264
O=c1[nH]c2cccc(C3CCCNC3)c2[nH]1 (configuration not stated)	260
NNC1CCC(c2ccccc2F)c2cc(Cl)ccc2N1 (configuration not stated)	213 to 215
CC1Cc2c(c3ccccc3n2C(=O)c2ccccc2)C(C)C1C(=O)O (configuration not stated)	142 to 145
COc1cccc(CC(=O)O)c1OCCCc1cn(-c2ccc(C(F)(F)F)cn2)nc1C(C)(C)C	94 to 95
CCCC(O)c1cc(C(=O)OC)c(NC(C)=O)cc1C(F)(F)F (configuration not stated)	97 to 101
O=C1NC(Cc2c[nH]c3ccccc23)C(=O)N1CCCN1CCC(c2ccccc2)CC1 (configuration not stated)	179 to 180
C(=NC1CN2CCC1CC2)c1ccc(-c2ccccc2)cc1 (configuration not stated)	82 to 84
CN1CCC(=O)N(c2ccccc2Cl)C1=O	120 to 123
CNCC1Cc2cc(-c3ccccc3)cc(-c3ccc(OC)cc3)c2O1 (configuration not stated)	> 250
N#CC1(c2ccc(OCc3ccc(F)cc3)c(OC3CCCC3)c2)CCC(=NO)CC1 (configuration not stated)	55 to 57
c1ccc(P(CC[Si](c2ccccc2)(c2ccccc2)c2ccccc2)c2ccccc2)cc1	128 to 131
CN(C(CCn1c(=O)cc(Cl)n(C)c1=O)C(=O)NO)S(=O)(=O)c1ccc(Oc2ccccc2)cc1 (configuration not stated)	90 to 93
CN1CCN(c2ccc(/C=C/c3cc(/C=C/c4ccc5cc[nH]c5c4)[nH]n3)cc2)CC1	192 to 198
CCOP(=O)(CNC(CCCc1ccccc1)c1cc(C(C)(C)C)c(O)c(C(C)(C)C)c1)OCC (configuration not stated)	93 to 94
CCCCNc1nc(C)c(C(=O)OCC)c(N)c1[N+](=O)[O-]	74 to 76
COC(=O)c1ccccc1NS(=O)(=O)NC(C)C	106 to 108
CCc1ccc(C=C2C(=O)c3cc(O)ccc3OC2c2ccc(CC)cc2)cc1 (configuration not stated)	178 to 180
CC1(C)C=Cc2cc(C(=O)NCCc3ccc(OCc4ccccc4)cc3)ccc2O1	133 to 135
Cc1cc(C#N)ccc1-c1ccc(-c2nc3cc(C#N)ccc3[nH]2)cc1	269 to 270
CN(C)CCc1c[nH]c2ccc(C=CC(=O)NCc3ccc([N+](=O)[O-])cc3)cc12	177 to 187

Structure (SMILES)	melting point [°C]
CCCCCCn1c(=O)c(=O)[nH]c2c3ccccc3ccc21	196
O=C(c1cccs1)c1cnn2c(-c3cccc(-c4nnn(CC5CCC5)n4)c3)ccnc12	170
CCN(C(=O)C1CC1)c1cnn2ccccc12	83 to 86
c1ccc(CC2=NOC3(CCNCC3)C2)cc1	51 to 54
CC12CCC3(CC1CCC1C2CCC2(C)C1CC(O)C2N=[N+]=[N-])OCCO3 (configuration not stated)	112 to 116
CCOC(=O)CC(=O)CNC(=O)CCc1cc(-c2ccc(C(F)(F)F)cc2)oc1C	131 to 133
NCc1cccc(Nc2ncnc3[nH]cc(C(=O)c4ccccc4)c23)c1	210 to 212
NC(=O)N(O)Cc1sccc1Oc1ccccc1	132 to 134
COc1ccc(C2=NN(C3CCN(C(=O)c4ccccc4)CC3)C(=O)CC2)cc1OC	152 to 154
O=c1[nH]c(=O)n(CCCl)c2ccccc12	189 to 192
Cn1c(=O)c(C(=O)O)c(-c2ccccc2)c2cc(Cl)ccc21	242 to 243
CC1(C)Oc2cc3nonc3cc2C(N2CCC(=O)CC2=O)C1O (configuration not stated)	220 to 223
COc1ccc(C(=O)Nc2ccc(-n3nc(C(F)(F)F)cc3C(F)(F)F)cc2)cc1	205 to 207
CN(C)Cc1nnc2n1-c1ccccc1C(c1ccccc1)=NC2	181 to 182
COC(=O)CCCCCCNC(=O)C(CSC(C)=O)Cc1ccccc1 (configuration not stated)	84 to 85
COc1ccc2c(c1)C(=O)CC1C2C(OC(C)=O)CC2(C)C(OC(C)=O)CCC12 (configuration not stated)	199 to 200
O=C(OCCCO)c1cc([N+](=O)[O-])cc([N+](=O)[O-])c1	76
CC12CC(=O)C3C(CCC4CC(=O)CCC43C)C1CCC2C(=O)CBr (configuration not stated)	170
CCOC(=O)c1c(Cl)c2cc(F)ccc2n(Cc2ccccc2)c1=O	118
O=C(c1[nH]c2ccccc2c1Sc1ccccn1)N1CCCC1	211 to 213
CC(=O)OC1CSC(Oc2cccc(-c3cc(C)ccn3)c2)C(OC(C)=O)C1OC(C)=O (configuration not stated)	116
Cc1c(NC(=O)CC(C)(C)C)c(C)c2c(c1-c1cccc(N)n1)OCC2c1ccc(C(C)C)cc1 (configuration not stated)	237 to 239
COc1cc2c(cc1OC)N(C)C(=O)CN=C2c1cccnc1	177 to 179
CC1(C)CCC(C)(C)c2cc(C(C(N)=O)C(=O)Nc3ccc(C(=O)O)cc3)ccc21 (configuration not stated)	112 to 113
